According to patent US11524040B2, “Composition for the treatment of acne” (priority 2020, dated 2022):

How the values were obtained:
[1] = tested on: Tumor necrosis factor (TNF-α); experiment: TNF-α production in human primary sebocytes; format: cell-based; settings: human primary sebocytes in vitro; CBD isolate at same concentration as present in the invention
Method: (§1) In a study using human primary keratinocytes, two formulations were analyzed, Natural Blemish Light Lotion (NB) and Natural Blemish OTC Lotion (OTC) for unique properties. All the following experiments include a 24-hour treatment of the finished products used in the dilutions shown and were analyzed by quantitative polymerase chain reaction (qPCR).
(§2) Because sebum production is a major factor in the pathophysiology of acne vulgaris, experiments were performed using human primary sebocytes isolated from the eye area. The main function of sebocytes is considered to be the production of lipids to moisturize the skin. However, it recently became apparent that sebocytes release chemokines and cytokines and respond to proinflammatory stimuli as well as the presence of bacteria. (Attii M, Lovászi M, Garzorz N, Atenhan A, Quaranta M, Lauffer F, Konstantinow A, Küpper M, Zouboulis C C, Kemeny L, Eyerich K, Schmidt-Weber C B, Töröcsik D, Eyerich S. Sebocytes contribute to skin inflammation by promoting the differentiation of T helper 17 cells. Br J Dermatol. 2018 March; 178(3):722-730. doi: 10.1111/bjd.15879. Epub 2018 Jan. 9. PMID: 28799643). The overproduction of sebum, proinflammatory chemokines and cytokines released from sebocytes all contribute to the formation of comedones on the skin. Both OTC and NB were studied as well as AP to investigate the efficacy of these products. […]

[2] = tested on: Interleukin-6 (IL-6); experiment: Interleukin-6 expression in keratinocytes; format: cell-based, human; settings: 24-hour treatment, CBD isolate at same concentration as present in the invention
Method: as §1
Interleukin-6 (IL-6) is a well-established marker for inflammation. Largely produced in the skin by keratinocytes, its production leads to the activation of the STAT3 pathway which has been linked to the pathogenesis of many inflammatory skin diseases (Activation of Janus kinase signaling pathway in acne lesions, Sara Mohamed Awad, Yasmin Mostafa Tawfik, Mohamed Ahmed El-Mokhtar, Amira F. El-Gazzar, Amira Ali Abdel Motaleb First published: 19 Nov. 2020 https://doi.org/10.1111/dth.14563). In addition, IL-6 exerts stimulatory effects on T-cells and B-cells, thus favoring chronic inflammatory responses. (Gabay C. Interleukin-6 and chronic inflammation. Arthritis Res Ther. 2006; 8 Suppl 2(Suppl 2):S3. doi:10.1186/ar1917). […] That is, the compositions work better to reduce expression of IL-6 than the individual ingredients, namely CBD alone.

[3] = tested on: Fox-01; experiment: FOX-01 expression in human primary sebocytes; format: cell-based; settings: 100 ug/mL
Method: as §1, §2

## C=C(C)[C@@H]1CCC(C)=C[C@H]1c1c(O)cc(CCCCC)cc1O [CBD isolate, Cannabidiol]
[1]
  lowered production of TNF-α: 14.0%
[2]
  reduction of expression of IL-6: 6.0%
[3]
  increase of Fox-01 expression: 50.8%
